Literature values as cited in patent publication US20040214861A1, “Compositions of a cyclooxygenase-2 selective inhibitors and 5-HT1B1D antagonists for the treatment and prevention of migraine” (Pharmacia Corporation, priority 2003, published 2004).

Conditions: at one and two hours after administration; compared with sumatriptan

Q: With `CN1CCC[C@@H]1Cc1c[nH]c2ccc(CCS(=O)(=O)c3ccccc3)cc12` [eletriptan] as the molecule, how does the effectiveness after administration read?
A: greater effectiveness at one and two hours after administration than sumatriptan
